Test results published in publication PMC3759295 (Toxicology letters, 2013).
Where “and” joins values, the source holds several entries; their conditions need not be identical. Equal values may be shown once.

Tests used:
[1] = system: CYP1A1 protein in primary human hepatocytes; assay: CYP1A1 protein in primary human hepatocytes; conditions: for induction of CYP1A1 protein: four different primary human hepatocytes cultures
[2] = target: T1, AhR (Homo sapiens, UniProt P35869); assay: Gene reporter assay, transcriptional activity of AhR in AZ-AHR reporter cells; conditions: 10 µM and 50 µM, 24 h
T1 sequence (P35869 11-848): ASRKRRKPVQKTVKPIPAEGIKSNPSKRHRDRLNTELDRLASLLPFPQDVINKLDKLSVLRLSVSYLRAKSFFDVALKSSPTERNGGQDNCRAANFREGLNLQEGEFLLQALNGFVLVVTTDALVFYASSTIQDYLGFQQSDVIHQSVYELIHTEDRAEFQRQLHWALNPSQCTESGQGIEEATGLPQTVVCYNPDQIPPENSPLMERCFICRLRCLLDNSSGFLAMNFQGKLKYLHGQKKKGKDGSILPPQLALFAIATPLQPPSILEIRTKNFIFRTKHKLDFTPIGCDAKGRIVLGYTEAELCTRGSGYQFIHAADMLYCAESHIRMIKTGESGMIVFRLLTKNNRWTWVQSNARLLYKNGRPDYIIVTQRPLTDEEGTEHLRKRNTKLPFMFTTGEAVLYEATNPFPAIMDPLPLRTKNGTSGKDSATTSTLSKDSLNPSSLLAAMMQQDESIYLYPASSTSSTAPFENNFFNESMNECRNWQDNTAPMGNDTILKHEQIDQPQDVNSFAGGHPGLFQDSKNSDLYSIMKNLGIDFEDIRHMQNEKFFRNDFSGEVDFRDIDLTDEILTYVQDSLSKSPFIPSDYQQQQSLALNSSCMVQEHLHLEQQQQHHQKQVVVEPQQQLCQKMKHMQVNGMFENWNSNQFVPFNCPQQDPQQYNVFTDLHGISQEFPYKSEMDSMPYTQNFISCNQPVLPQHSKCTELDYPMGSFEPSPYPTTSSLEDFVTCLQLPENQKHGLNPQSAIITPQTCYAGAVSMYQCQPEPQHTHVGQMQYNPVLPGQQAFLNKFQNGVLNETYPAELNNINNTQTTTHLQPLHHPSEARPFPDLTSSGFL

[3] = target: T2, CYP1A1 (Homo sapiens, UniProt P04798); assay: Enzyme activity of CYP1A1 in human liver microsomes; type: biochemical; conditions: 100 µM
T2 sequence (P04798 1-512): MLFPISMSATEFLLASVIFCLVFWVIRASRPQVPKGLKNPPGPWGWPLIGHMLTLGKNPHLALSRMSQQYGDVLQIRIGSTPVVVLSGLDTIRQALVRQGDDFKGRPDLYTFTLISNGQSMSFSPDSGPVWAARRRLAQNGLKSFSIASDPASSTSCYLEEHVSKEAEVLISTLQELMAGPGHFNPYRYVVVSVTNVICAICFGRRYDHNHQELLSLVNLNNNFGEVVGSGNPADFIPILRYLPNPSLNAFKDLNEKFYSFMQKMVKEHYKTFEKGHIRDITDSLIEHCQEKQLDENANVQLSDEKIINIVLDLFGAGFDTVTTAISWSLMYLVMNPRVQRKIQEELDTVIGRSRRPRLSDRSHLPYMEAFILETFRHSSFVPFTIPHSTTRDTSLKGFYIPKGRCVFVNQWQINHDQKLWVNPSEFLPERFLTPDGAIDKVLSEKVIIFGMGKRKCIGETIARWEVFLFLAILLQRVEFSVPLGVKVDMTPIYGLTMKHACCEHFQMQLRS

[4] = system: CYP1A1 mRNA in primary human hepatocytes; assay: CYP1A1 mRNA expression in primary human hepatocytes; type: cell-based
[5] = system: CYP1A1 protein in LS174T cells; assay: CYP1A1 protein in LS174T cells; type: cell-based, human; conditions: TCDD 5 nM, 48 h
[6] = system: CYP1A1 protein in HepG2 cells; assay: CYP1A1 protein in HepG2 cells; type: cell-based, human; conditions: HepG2, TCDD 5 nM, 48 h
[7] = system: CYP1A1 mRNA in HepG2 cells; assay: CYP1A1 mRNA expression in HepG2 cells; conditions: 24 h
[8] = system: CYP1A1 mRNA in LS174T cells; assay: CYP1A1 mRNA expression in LS174T cells; conditions: 24 h
[9] = system: CYP1A1 mRNA; assay: CYP1A1 mRNA expression in primary human hepatocytes; type: cell-based; conditions: human
[10] = target: T3, AhR (Cavia porcellus, UniProt Q6J287); conditions: any tested concentration, 2 nM [3H]TCDD
T3 sequence (Q6J287 1-846): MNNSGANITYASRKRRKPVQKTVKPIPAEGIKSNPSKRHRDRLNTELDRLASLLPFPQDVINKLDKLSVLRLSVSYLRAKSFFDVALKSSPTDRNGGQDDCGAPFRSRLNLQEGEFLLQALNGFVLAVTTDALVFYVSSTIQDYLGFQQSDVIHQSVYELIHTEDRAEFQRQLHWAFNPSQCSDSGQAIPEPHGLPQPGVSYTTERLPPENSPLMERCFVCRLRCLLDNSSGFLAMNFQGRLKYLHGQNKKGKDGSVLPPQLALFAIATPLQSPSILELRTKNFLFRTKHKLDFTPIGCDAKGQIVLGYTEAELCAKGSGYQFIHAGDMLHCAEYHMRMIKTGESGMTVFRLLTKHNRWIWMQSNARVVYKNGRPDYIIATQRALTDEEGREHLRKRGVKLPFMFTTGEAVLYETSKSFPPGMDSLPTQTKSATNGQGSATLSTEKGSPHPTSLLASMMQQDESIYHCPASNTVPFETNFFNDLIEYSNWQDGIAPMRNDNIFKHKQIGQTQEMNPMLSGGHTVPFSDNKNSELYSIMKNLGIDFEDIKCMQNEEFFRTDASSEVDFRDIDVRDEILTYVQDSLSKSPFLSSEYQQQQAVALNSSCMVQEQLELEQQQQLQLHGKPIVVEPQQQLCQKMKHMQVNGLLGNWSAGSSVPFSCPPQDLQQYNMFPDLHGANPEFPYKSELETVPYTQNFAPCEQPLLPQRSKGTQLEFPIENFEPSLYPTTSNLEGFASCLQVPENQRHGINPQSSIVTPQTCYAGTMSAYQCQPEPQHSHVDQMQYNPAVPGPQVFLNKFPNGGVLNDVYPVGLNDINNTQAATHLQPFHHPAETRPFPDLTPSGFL

[11] = male, primary human hepatocytes (culture LH45)
[12] = male, primary human hepatocytes (culture LH46)

`CC1OC(OCC2OC(Oc3cc4c(O)cc(O)cc4[o+]c3-c3ccc(O)cc3)C(O)C(O)C2O)C(O)C(O)C1O.[Cl-]` (stereo not drawn) [PEL-2, pelargonidin-3-O-rutinoside chloride] was tested, and the “induction of CYP1A1 protein” value [1] was “Neither compound induced”, the “induction of luciferase activity” value [2] was “concentration-dependent induction” and the “CYP1A1 activity remaining, % of the initial activity (without anthocyanin)” value [3] was 79%. The “CYP1A1 mRNA fold induction over the vehicle-treated cells, LH45” value (shortened to “CYP1A1 mRNA fold induction … LH45”) ([4]; hepatocyte culture LH45, 10 µM, 24 h) was 0.87 ± 0.04 fold, the “CYP1A1 mRNA fold induction … LH45” value ([4]; hepatocyte culture LH45, 50 µM, 24 h) was 0.24 ± 0.01 fold and the “CYP1A1 mRNA fold induction over the vehicle-treated cells, LH46” value ([4]; hepatocyte culture LH46, 10 µM, 24 h) was 2.66 ± 0.20 fold. The “CYP1A1 mRNA fold induction over the vehicle-treated cells, LH46” value ([4]; hepatocyte culture LH46, 50 µM, 24 h) was 2.39 ± 0.22 fold, the “CYP1A1 mRNA fold induction over the vehicle-treated cells, LH47” value ([4]; hepatocyte culture LH47, 50 µM, 24 h) was 0.61 ± 0.01 fold and the “CYP1A1 mRNA fold induction over the vehicle-treated cells, LH48” value ([4]; hepatocyte culture LH48 (so in the source), 50 µM, 24 h) was 0.60 ± 0.17 fold. The “induction of CYP1A1 mRNA” value ([4]; hepatocytes) was “Neither compound induced”.
In the case of `Clc1cc2c(cc1Cl)Oc1cc(Cl)c(Cl)cc1O2` [TCDD, 2,3,7,8-Tetrachlorodibenzo-p-dioxin], the “levels of CYP1A1 protein” value [5] is reported as “strongly induced”, the “levels of CYP1A1 protein” value ([1]; four human hepatocytes cultures, TCDD 5 nM, 48 h) is reported as “strongly induced” and the “CYP1A1 mRNA fold induction … LH45” value ([4]; hepatocyte culture LH45, TCDD 5 nM, 24 h) is reported as 125.4 ± 17.7 fold. For the same compound, the “CYP1A1 mRNA fold induction over the vehicle-treated cells, LH47” value ([4]; hepatocyte culture LH47, TCDD 5 nM, 24 h) was 104.7 ± 13.4 fold, the “magnitude of induction of CYP1A1 mRNA, LH49” value ([4]; hepatocyte culture LH49, TCDD, 24 h) was 71 fold and the “levels of CYP1A1 protein” value [6] was “strongly induced”. The “induction of CYP1A1 mRNA” value ([7]; HepG2, TCDD 5 nM, two independent experiments) was 322 fold and 216 fold and the “induction of CYP1A1 mRNA” value ([8]; TCDD 5 nM, two independent experiments) was 1003 fold and 724 fold.
`OC[C@H]1O[C@@H](Oc2cc3c(O[C@@H]4O[C@H](CO)[C@@H](O)[C@H](O)[C@H]4O)cc(O)cc3[o+]c2-c2ccc(O)c(O)c2)[C@H](O)[C@@H](O)[C@@H]1O` [CYA-3, cyanidin-3,5-di-O-glucoside chloride] was tested, and the “induction of CYP1A1 protein” value [1] was “Neither compound induced”, the “induction of luciferase activity” value [2] was “concentration-dependent induction” and the “induction of CYP1A1 mRNA” value ([4]; four different primary human hepatocytes cultures) was “Neither compound induced”. The fold induction at 24 h, 50 µM ([9]; primary human hepatocytes (culture LH48 as printed)) was 0.13 ± 0.03, the fold induction at 24 h, 10 µM [9, 11] was 0.68 ± 0.2 and the fold induction at 24 h, 50 µM [9, 11] was 0.48 ± 0.07. It also gave a fold induction at 24 h, 10 µM [9, 12] of 2.21 ± 0.16, a fold induction at 24 h, 50 µM [9, 12] of 2.59 ± 0.09 and a fold induction at 24 h, 50 µM ([9]; male, primary human hepatocytes (culture LH47)) of 0.45 ± 0.03. For the same compound, the “displacement of radiolabelled TCDD from AhR” value [10] was “did not displace”, the “level of CYP1A1 mRNA” value ([7]; HepG2, 50 µM) was “significantly increased” and the “level of CYP1A1 mRNA” value ([8]; 50 µM) was “significantly increased”.
